Series [1] deals with T. brucei rhodesiense strain IL1501. Nature of the series: Antitrypanosomal assay. The series is classed as cell-based, Trypanosoma brucei rhodesiense. The settings on record: IC50 of MDBK/IC50 of trypanosome.
Series [2] has as its system L. major strain NIH S promastigotes. Nature of the series: Antipromastigote resazurin assay. The series is classed as cell-based, Leishmania major. As to conditions: for AG (activity gain): IC50 (1)/IC50 (compd.), L. major promastigotes; for SI4: SI4 = IC50 Vero/IC50 promastigote, L. major; for IC50: Leishmania major, read-out: Antipromastigote activity IC50.
Series [3] is described as follows: Host cell toxicity, resazurin assay. The series is classed as cell-based. As to conditions: human. In general terms: Alamar Blue is a resazurin reagent that responds to reducing activity.
The test system of the next series is Trypanosoma spp. Description: Antitrypanosomal assay, several species. The series is classed as cell-based. The settings on record: read-out: IC50 against several Trypanosoma spp.
Series [4] deals with T. brucei gambiense strain IL1922. Nature of the series: Antitrypanosomal assay. The series is classed as cell-based, Trypanosoma brucei gambiense. As to conditions: IC50 of MDBK/IC50 of trypanosome.
Series [5] can be described thus: Animal cytotoxicity, CCK-8 assay. The settings on record: bovine, MDBK (Madin-Darby bovine kidney) cells. It is filed as cell-based, bovine. For orientation: Tetrazolium dyes change colour on reduction, which living cells bring about.
The next series is described as follows: General. The series is classed as cell-based. As to conditions: African green monkey, Vero cells (monkey kidney epithelial cells).
Series [6] concerns L. major strain NIH S intramacrophage amastigotes. Nature of the series: Intramacrophage antileishmanial resazurin assay. The series is classed as cell-based, Leishmania major. The settings on record: L. major; for SI5: SI5 = IC50 Vero/static IC50 amastigote; for SI6: SI6 = IC50 Vero/cidal IC50 amastigote; for SpI3: SpI3 = IC50 promastigote/static IC50 amastigote; for SpI4: SpI4 = IC50 promastigote/cidal IC50 amastigote.

Series [7] relates to L. donovani strain 9515 promastigotes. Description: Antipromastigote resazurin assay. The series is classed as cell-based, Leishmania donovani. The settings on record: for AG (activity gain): IC50 (1)/IC50 (compd.), L. donovani promastigotes; for SI1: SI1 = IC50 Vero/IC50 promastigote, L. donovani; for IC50: Leishmania donovani, read-out: Antipromastigote activity IC50.
Series [8] concerns T. brucei brucei strain GUTat3.1. Nature of the series: Antitrypanosomal assay. As to conditions: for SI Tbb GuTat3.1: IC50 of MDBK/IC50 of trypanosome; for IC50: read-out: Antitrypomastigote activity IC50 ± SD Tbb GuTat3.1. The series is classed as cell-based, Trypanosoma brucei brucei.
For series [9], the system named is T. congolense strain IL3000. Description: Antitrypanosomal assay. It is filed as cell-based, Trypanosoma congolense. The settings on record: IC50 of MDBK/IC50 of trypanosome.
The nature of series [10]: Solubility observed during sample preparation and screening. It is filed as physicochemical.
Series [11] concerns T. equiperdum strain IVM-t1. Nature of the series: Antitrypanosomal assay. As to conditions: for SI Teq IVM-t1: IC50 of MDBK/IC50 of trypanosome. The series is classed as cell-based, Trypanosoma equiperdum.
Series [12] deals with L. donovani strain 9515 intramacrophage amastigotes. Nature of the series: Intramacrophage antileishmanial resazurin assay. The series is classed as cell-based, Leishmania donovani. As to conditions: L. donovani.
A further series deals with MDBK cells. Description: Animal cytotoxicity, CCK-8 assay. It is filed as cell-based, bovine. The settings on record: read-out: Cytotoxicity IC50 ± SD MDBK; MDBK cells; three biological replicates.

Read-outs that look alike come from different tables or passages of the source. Where only a bound is given, the exact number is not on record here.

On to `O=Cc1cn(Cc2ccc(F)cc2)c2ccc([N+](=O)[O-])cc12` [2e, 1-(4-Fluorobenzyl)-5-nitro-1 H-indole-3-carbaldehyde], for which, in series [1], the “SI Tbr IL1501” value is 4. In addition, the “AG (activity gain)” value in series [2] and in [7] was 0.5 throughout. Moreover, in series [2], the SI4 amounted to 1. Moreover, the IC50 in [3] is greater than 100 µM; with Trypanosoma spp. it was 20 to 40 µM; in series [5], greater than 335 µM; in “General” it was greater than 100 µM; in series [8] (Trypanosoma brucei), 15 ± 8.48 µM. The “SI Tbg IL1922” value in series [4] is given as 15. Also, the SI5 in [6] was found to be 8. This compound also had an SI6 in [6] of 8. The same compound displayed a SpI3 in series [6] of 7. This compound also came in with a SpI4 in series [6] of 8. The same compound registered an SI1 in series [7] of 1. Moreover, the “SI Tbb GuTat3.1” value in [8] is on record as 22.
On to `O=C1NC(=S)S/C1=C\c1c[nH]c2ccc([N+](=O)[O-])cc12` [3a, (Z)-5-[(5-Nitro-1 H-indol-3-yl)methylene]-2-thioxothiazolidin-4-one], for which the “SI Tc IL3000” value in series [9] was found to be 1. Further, the “SI Tbr IL1501” value in [1] is 0. In addition, the IC50 was greater than 100 µM in series [2]; greater than 100 µM in series [3]; 31.6 ± 1.67 µM in series [5]; 15.2 ± 0.32 µM in the series “General”; greater than 100 µM in [7]; 33.7 ± 5.01 µM in [8] (Trypanosoma brucei). Moreover, the “SI Tbg IL1922” value in [4] came out at 1. Besides, the SI5 in [6] was determined as 25. Also, the SI6 in [6] was determined as 27. Also, the SpI3 in series [6] amounted to 166. Moreover, the SpI4 in series [6] came out at 175. Besides, in series [10], the “Solubility in aqueous screening medium” value is on record as “poor solubility”. Also, the “SI Teq IVM-t1” value in series [11] amounted to 1. For the same compound, in series [8], the “SI Tbb GuTat3.1” value turned out to be 1.
`C#CCn1cc(/C=C2\SC(=S)NC2=O)c2cc([N+](=O)[O-])ccc21` [3b, (Z)-5-{[5-Nitro-1-(prop-2-yn-1-yl)-1 H-indol-3-yl]methylene}-2-thioxothiazolidin-4-one]: the “SI Tbr IL1501” value in [1] stood at 4. The “AG (activity gain)” value in series [2] came out at 0.9; in series [7], 0.7. Besides, the IC50 is 56.8 ± 5.57 µM in series [2]; 20 to 40 µM in the series with Trypanosoma spp.; greater than 312 µM in [5]; 13.5 ± 0.8 µM in the series “General”; 68.7 ± 6.55 µM in [7]; greater than 78 µM in series [8] (Trypanosoma brucei). In series [2], this compound showed an SI4 of 0.2. In [7], this compound displayed an SI1 of 0.2. In series [10], the “Solubility in aqueous screening medium” value is listed as “poor solubility”.
On to `O=C1NC(=S)S/C1=C\c1cn(Cc2ccccc2)c2ccc([N+](=O)[O-])cc12` [3c, (Z)-5-[(1-Benzyl-5-nitro-1 H-indol-3-yl)methylene]-2-thioxothiazolidin-4-one], for which, in series [9], the “SI Tc IL3000” value came out at 5. For the same compound, the IC50 is greater than 100 µM in series [2]; greater than 100 µM in series [3]; 99.13 ± 0.96 µM in [5]; 18.8 ± 3.22 µM in “General”; greater than 100 µM in [7]; greater than 73 µM in series [8] (Trypanosoma brucei). This compound came in with an SI2 in [12] (SI2 = IC50 Vero/static IC50 amastigote) of 6. This compound displayed an SI3 in [12] (SI3 = IC50 Vero/cidal IC50 amastigote) of 6. In series [12] (SpI1 = IC50 promastigote/static IC50 amastigote), this compound yielded a SpI1 of 34. Moreover, the SpI2 in series [12] (SpI2 = IC50 promastigote/cidal IC50 amastigote) worked out at 33. In series [6], this compound had an SI5 of 35. The same compound gave an SI6 in series [6] of 37. The same compound had a SpI3 in series [6] of 189. Moreover, the SpI4 in series [6] is reported as 196.
On to `O=C1NC(=S)S/C1=C\c1cn(Cc2ccc(F)cc2)c2ccc([N+](=O)[O-])cc12` [3e, (Z)-5-{[1-(4-Fluorobenzyl)-5-nitro-1H -indol-3-yl]methylene}-2-thioxothiazolidin-4-one], for which the “SI Tc IL3000” value in [9] came to 7. Also, the IC50 in series [2] is greater than 100 µM; in series [5], 17 ± 2.65 µM; in “General”, 17.4 ± 1.33 µM; in series [7] it was greater than 100 µM; in [8] (Trypanosoma brucei), greater than 63 µM. In addition, the “Solubility in 100% DMSO” value in series [10] (100% dimethyl sulfoxide used for sample preparation) is on record as “poor solubility”.
On to `O=C1CSC(=S)N1/N=C/c1cn(Cc2ccc(F)cc2)c2ccc([N+](=O)[O-])cc12` [4e, (E)-3-({[1-(4-Fluorobenzyl)-5-nitro-1 H-indol-3-yl]methylene}amino)-2-thioxothiazolidin-4-one], for which, in [1], the “SI Tbr IL1501” value is given as 0. Also, the IC50 is greater than 100 µM in series [2]; 22.4 ± 5.37 µM in [5]; greater than 100 µM in the series “General”; greater than 100 µM in series [7]; 55.3 ± 4.84 µM in series [8] (Trypanosoma brucei). For the same compound, the “SI Tbg IL1922” value in series [4] amounted to 0. Also, the “Solubility in aqueous screening medium” value in series [10] is on record as “poor solubility”. Also, in series [8], the “SI Tbb GuTat3.1” value was 0.
`CC(=O)NCC(=O)O.CC(=O)NCC(=O)O.N=C(N)c1ccc(N=NNc2ccc(C(=N)N)cc2)cc1` [Diminazine aceturate, diminazene aceturate, reference compound]: the “SI Tc IL3000” value in series [9] is recorded as 4000. Besides, the “SI Tbr IL1501” value in series [1] is listed as 9091. In series [4], the “SI Tbg IL1922” value amounted to 33333. Also, the 50% inhibitory concentration (IC50) was greater than 355 µM in the series with MDBK cells; 0.022 ± 0.002 µM in [11] (read-out: Antitrypomastigote activity IC50 ± SD Teq IVM-t1, three biological replicates); 0.068 µM in series [8] (three biological replicates). Further, in series [11], the “SI Teq IVM-t1” value was 16340. In series [8], the “SI Tbb GuTat3.1” value is 5263.

As usually defined, the IC50 is the concentration at which inhibition is half-maximal.

(Values after article PMC11901381 (Future Medicinal Chemistry, 2025).)
